Reference: PMC4697807, “Novel Zn^2+ Modulated GPR39 Receptor Agonists Do Not Drive Acute Insulin Secretion in Rodents” (PLoS ONE, 2015)
Read-outs that look alike come from different tables or passages of the source.

Columns and labels:
Format in all cases: cell-based
[1] = molecular target: T1, GPR39 (Homo sapiens, UniProt O43194); experiment: Dynamic mass redistribution (DMR) label-free assay, HEK293s-hGPR39 cells; parameters: Full length human (AF034633), rat (DM091294) and mouse (BC085285) GPR39; expressed in transfected cells; host or cells: HEK293s (ATCC CRL-1573), pIRESneo3 vector, selected clones; settings: for Efficacy at 33 μM: AZ1395 100% reference
T1 sequence (O43194 1-453): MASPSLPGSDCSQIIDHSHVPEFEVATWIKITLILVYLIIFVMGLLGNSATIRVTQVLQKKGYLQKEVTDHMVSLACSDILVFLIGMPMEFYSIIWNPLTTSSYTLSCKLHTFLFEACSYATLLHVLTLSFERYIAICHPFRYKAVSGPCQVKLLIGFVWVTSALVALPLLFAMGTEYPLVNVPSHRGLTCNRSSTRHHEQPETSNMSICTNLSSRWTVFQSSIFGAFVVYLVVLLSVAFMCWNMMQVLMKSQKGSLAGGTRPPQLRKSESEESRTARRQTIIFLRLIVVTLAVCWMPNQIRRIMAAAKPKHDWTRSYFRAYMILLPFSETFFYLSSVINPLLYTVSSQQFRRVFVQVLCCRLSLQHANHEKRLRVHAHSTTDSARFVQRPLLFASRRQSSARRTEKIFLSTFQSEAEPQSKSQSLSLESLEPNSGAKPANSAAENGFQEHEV
Excerpt: (§1) Full length human (AF034633), rat (DM091294) and mouse (BC085285) GPR39 (GeneArt–Life Technologies, Carlsbad, CA) were subcloned into the pIRESneo3 vector (Clontech, Mountain View, CA). The resulting expression vectors hGPR39-, rGPR39- and mGPR39-pIRESneo3 were transfected into HEK293s cells (ATCC CRL-1573) using Lipofectamine 2000 (Life Technologies). Individual clones were isolated using flow cytometry with a FACSVantage SE DIVA (Becton Dickinson, Franklin Lakes, NJ) and clones were chosen based on responses to Zn^2+ measured in a cAMP assay (see below). […] HEK293s-derived cell lines were cultured at 37°C, 10% CO2 and 95% humidity in DMEM supplemented with 10% FBS and 600 μg/ml Geneticin (Life Technologies). The mouse pancreas epithelial cell line NIT-1 (ATCC CRL-2055) with endogenous expression of GPR39 was cultured at 37°C, 5% CO2, and 95% humidity in Ham´s F12 (Life Technologies) supplemented with 10% FBS.
(§2) DMR assays were performed using an Epic instrument (Corning Inc., Corning, NY). 12,000 cells per well were cultured for 24 h in 384-well fibronectin-coated Epic biosensor plates (Corning). On the day of experiment, culture medium was removed and replaced with 30 μl buffer A (HBSS, HEPES 20 mM pH7.4, 1% DMSO, 0.01% BSA) using an EL406 (Bio-Tek). Plates were incubated at 26 °C for 1 h inside the Epic to allow for temperature equilibration. A baseline was read for 2 min, and then 15 μl compounds in buffer A were added using a CyBi-Well vario (CyBio) and DMR was detected during 45 min.
(§3) Concentration response data were fitted with a four parameter logistic fit using Eq 1, y=A+((B−A)/1+((C/x)^D))) (1) where A is no activation, B is full activation, C is the EC50 and D is the Hill slope.

[2] = molecular target: T2, GPR39 (NIT-1 cells) (Mus musculus, UniProt Q5U431); experiment: IP1 assay in NIT-1 cells endogenously expressing GPR39; settings: for Emax: read-out: Emax relative to the 100% efficacy reference AZ1395
T2 construct: NIT-1 cells endogenously expressing GPR39; endogenous in cells; host or cells: NIT-1 (ATCC CRL-2055)
T2 sequence (Q5U431 1-456): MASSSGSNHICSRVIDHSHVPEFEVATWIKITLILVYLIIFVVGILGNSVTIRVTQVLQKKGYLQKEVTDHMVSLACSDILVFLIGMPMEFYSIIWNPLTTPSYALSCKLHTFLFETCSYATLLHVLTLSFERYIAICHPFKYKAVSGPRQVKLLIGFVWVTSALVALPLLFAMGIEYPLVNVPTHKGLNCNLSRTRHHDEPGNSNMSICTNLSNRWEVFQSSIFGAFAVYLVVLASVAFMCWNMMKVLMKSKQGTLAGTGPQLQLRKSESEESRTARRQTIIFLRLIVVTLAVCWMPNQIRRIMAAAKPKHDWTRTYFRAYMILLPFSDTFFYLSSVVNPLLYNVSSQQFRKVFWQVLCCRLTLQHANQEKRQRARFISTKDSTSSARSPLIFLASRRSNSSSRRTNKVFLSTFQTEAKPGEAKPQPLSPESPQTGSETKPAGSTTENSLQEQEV
Excerpt: as §1
IP1 assays were performed using IP-One Tb kits (CisBio). IP1 production was detected by HTRF as described above. Buffers and reagents were according to manufacturers’ protocols except LiCl concentrations in stimulation buffer which were 50 mM in assays employing HEK293s-hGPR39 cells and 20 mM in assays using NIT-1 cells. For assays using HEK293s-hGPR39 cells, 12,500 cells per well were dispensed into small-volume 384-well plates (Greiner) and IP1 production was stimulated in the presence of compounds for 30 min at 37 °C in a total volume of 20 μl. For assays using NIT-1 cells, 25,000 cells per well were seeded into poly-D-lysine coated 384-well plates (Becton-Dickinson) and cultured in Ham´s F12 medium with 10% FBS. After 48 h, cells were washed with stimulation buffer and IP1 production stimulated in the presence of compounds for 45 min at 37 °C in a total volume of 60 μl.
as §3

[3] = molecular target: T3, rGPR39 (Rattus norvegicus, UniProt A0A8J8Y1V6); experiment: DMR label-free assay, HEK293s cells transfected with rat GPR39
T3 sequence (A0A8J8Y1V6 1-456): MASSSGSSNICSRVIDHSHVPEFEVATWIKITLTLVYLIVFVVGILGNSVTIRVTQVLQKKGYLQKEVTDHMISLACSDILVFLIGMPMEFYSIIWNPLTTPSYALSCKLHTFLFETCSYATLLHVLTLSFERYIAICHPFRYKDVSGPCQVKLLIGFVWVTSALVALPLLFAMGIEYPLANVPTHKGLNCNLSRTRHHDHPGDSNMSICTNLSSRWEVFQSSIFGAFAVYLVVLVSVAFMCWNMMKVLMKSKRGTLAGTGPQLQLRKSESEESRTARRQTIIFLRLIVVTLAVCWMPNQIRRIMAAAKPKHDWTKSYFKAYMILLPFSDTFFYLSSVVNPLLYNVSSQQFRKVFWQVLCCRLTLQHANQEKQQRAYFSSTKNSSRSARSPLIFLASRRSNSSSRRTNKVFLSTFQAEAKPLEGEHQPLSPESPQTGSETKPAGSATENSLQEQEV
Excerpt: as §1, §2, §3

[4] = Zn^2+ by itself, read-out: EC50
[5] = absence (w/o) of Zn^2+, read-out: pEC50 ± SD (converted)
[6] = presence of 5 μM Zn^2+, read-out: EC50
[7] = presence of 5 μM Zn^2+, read-out: pEC50 ± SD (converted)
[8] = absence (w/o) of Zn^2+, read-out: EC50

SMILES | EC50 [1, 7] [nM] | Efficacy at 33 μM ([2]; absence (w/o) of Zn^2+) [%] | EC50 [2, 8] [nM] | EC50 [2, 6] [nM] | EC50 [3, 8] [nM] | EC50 [3, 6] [nM] | EC50 [3, 7] [nM] | Efficacy at 33 μM ([1]; absence (w/o) of Zn^2+) [%] | EC50 [1, 8] [nM] | Emax ([2]; presence of 5 μM Zn^2+) [%] | also measured
[Zn+2] [Zn^2+] | – | – | – | – | – | – | – | – | – | – | Emax relative to the 100% efficacy reference AZ1395 ([1]; Zn^2+ by itself): ~35%; pEC50 ± SD ([1]; Zn^2+ by itself): (4.87 ± 0.05); EC50 [1, 4]: 13000 nM; Efficacy at 33 μM ([2]; Zn^2+ by itself): 0%; agonistic effects ([2]; Zn^2+ by itself): no agonistic effects; EC50 [2, 4]: > 33000 nM
N#Cc1ccc(OCCn2ccnc2)c(OCCn2ccnc2)c1 [AZ1395, 3,4-bis-(2-imidazol-1-ylethoxy)-benzonitrile] | 35.5 | 0 | > 33000 | > 33000 | 5100 | 33 | 33.1 | – | – | – | EC50 [1, 5]: 2290 nM; EC50 [1, 6]: 36 nM; Efficacy at 33 μM ([2]; presence of 5 μM Zn^2+): 100%; EC50 [3, 5]: 5130 nM
Cc1nc(-c2nc3c(c(=O)[nH]2)CN(C(=O)c2cccc(Cl)c2F)CC3)cs1 [AZ7914, 6-(3-chloro-2-fluoro-benzoyl)-2-(2-methylthiazol-4-yl)-3,5,7,8-tetrahydropyrido-[4,3-d]pyrimidin-4-one] | 102 | 9 | > 33000 | 650 | 7400 | 150 | 148 | 39 | > 33000 | 47 | –
Cc1nc2c(C(=O)O)cnn2c(O)c1Cc1ccc(Cl)cc1 [AZ4237, 6-[(4-chlorophenyl)methyl]-7-hydroxy-5-methyl-pyrazolo[1,5-a]pyrimidine-3-carboxylic acid] | 191 | 8 | > 33000 | – | > 33000 | 150 | 148 | 20 | > 33000 | 50 | EC50 [2, 7]: 240 nM
